Reference: patent US20240270744A1 (Hoffmann-La Roche Inc., priority 2021, published 2024)
pKi: −log10 of the molar value. Read-outs that look alike come from different tables or passages of the source.

How the values were obtained:
[1] = target: human GABAA α5β2γ1 receptor (Homo sapiens (Human), UniProt P31644+Q8N1C3); experiment: Radioligand binding assay, competition for [3H]RO7239181, γ1-containing GABAA subtypes; settings: Table 1; [3H]RO7239181 displacement, membranes from HEK293F cells, mean of two determinations
Protocol: The affinity of compounds at GABAA γ1 subunit-containing receptors was measured by competition for [^3H]RO7239181 (67.3 Ci/mmol; Roche) binding to membranes from HEK293F cells (ThermoFisher R79007) expressing human (transiently transfected) receptors of composition α5β2γ1, α2β2γ1, α1β2γ1. For better protein expression of the α2 subunit-containing receptors, the 28 amino acid long signal peptide (Met1 to Ala28) of the human GABAA α2 subunit was substituted by the 31 amino acid long signal peptide (Met1 to Ser31) of human GABAA α5 subunit.
(§1) Harvested pellets from HEK293F cells expressing the different GABAA receptor subtypes were resuspended in Mannitol Buffer pH 7.2-7.4 (Mannitol 0.29 M, Triethylamine 10 mM, Acetic acid 10 mM, EDTA 1 mM plus protease inhibitors (20 tablets Complete, Roche Diagnostics Cat. No. 05 056 489 001 per liter)), washed two times and then resuspended at 1:10 to 1:15 dilution in the same buffer. Cell disruption was performed by stirring the suspension in a Parr vessel #4637 at 435 psi for 15 minutes, and then the suspensions were centrifuged at 1000×g for 15 minutes at 4° C. (Beckman Avanti J-HC: rotor JS-4.2). The supernatant (S1) was transferred in a 21 Schott flask and the pellet (P1) was resuspended with Mannitol Buffer up to 175 ml. The resuspended pellet was transferred into a 250 ml Corning centrifugal beaker and centrifuged at 1500×g for 10 minutes at 4° C. (Beckman Avanti J-HC: rotor JS-4.2). The supernatant (S1) was then transferred in the 21 Schott flask and the pellet was discarded. The supernatants (S1) were centrifuged in 500 ml Beckman polypropylene centrifugal beaker at 15′000×g for 30 minutes at 4° C. (Beckman Avanti J-20 XP; rotor JLA-10.500). The pellet (P2) was resuspended with Mannitol Buffer 1:1 and frozen at −80° C. The supernatant (S2) was centrifuged in 100 ml Beckman polypropylene centrifugal tubes at 48000×g for 50 minutes at 4° C. (Beckman Avanti J-20 XP; rotor JA-18). The supernatant (S3) was discarded and the pellet (P3) was resuspended with 1:1 Mannitol Buffer. The P2 and P3 protein concentration was determined with the BIORAD Standard assay method with bovine serum albumin as standard and measured on the NANO-Drop 1000. The membrane suspension was aliquots (500 μl per tube) and stored at −80° C. until required.
(§2) Membrane homogenates were resuspended and polytronised (Polytron PT1200E Kinematica AG) in Potassium Phosphate 10 mM, KCl 100 mM binding buffer at pH 7.4 to a final assay concentration determined with a previous experiment.
Radioligand binding assays were carried out in a volume of 200 μL (96-well plates) which contained 100 μL of cell membranes, [3H]RO7239181 at a concentration of 1.5 nM (α5β2γ1) or 20-30 nM (α1β2γ1, α2β2γ1) and the test compound in the range of [0.3-10000]=10^−9 M. Nonspecific binding was defined by 10×10^−6 (α5β2γ1) and 30×10^−6 M RO7239181 and typically represented less than 5% (α5β2γ1) and less than 20% (β1β2γ1, α2β2γ1) of the total binding. Assays were incubated to equilibrium for 1 hour at 4° C. and then, membranes were filtered onto unifilter (96-well white microplate with bonded GF/C filters preincubated 20-50 minutes in 0.3% Polyethylenimine) with a Filtermate 196 harvester (Packard BioScience) and washed 4 times with cold Potassium Phosphate 10 mM pH 7.4, KCl 100 mM binding buffer. After anhydrousing, filter-retained radioactivity was detected by liquid scintillation counting. Ki values were calculated using Excel-Fit (Microsoft) and are the means of two determinations.
Representative test results, obtained by the above described assay measuring binding affinity to HEK293 cells expressing human (h) receptors, are shown in the Table 1.

[2] = target: human GABAA α1β3γ2 receptor (Homo sapiens (Human), UniProt P14867+P18507); experiment: Radioligand binding assay, competition for [3H]Flumazenil, γ2-containing GABAA subtypes
Protocol: The affinity of compounds at GABAA γ2 subunit-containing receptors was measured by competition for [^3H]Flumazenil (81.1 Ci/mmol; Roche) binding to HEK293F cells expressing human (transiently transfected) receptors of composition α1β3γ2.
Harvested pellets from HEK293F cells expressing the different GABAA γ2 receptor subtypes were resuspended in Mannitol Buffer pH 7.2-7.4 and processed as described above for the cells expressing the GABAA γ1 subunit-containing receptors.
Assays were incubated to equilibrium for 1 hour at 4° C. and harvested onto GF/C uni-filters (Packard) by filtration using a Packard harvester and washing with ice-cold wash buffer (50 mM Tris; pH 7.5). After anhydrousing, filter-retained radioactivity was detected by liquid scintillation counting. Ki values were calculated using Excel-Fit (Microsoft) and are the means of two determinations.

[3] = target: human GABAA α2β2γ1 receptor (Homo sapiens (Human), UniProt P47869+Q8N1C3); experiment: Radioligand binding assay, competition for [3H]RO7239181, γ1-containing GABAA subtypes; settings: for LogSel: Log of the γ2/γ1 Ki ratio
Protocol: The affinity of compounds at GABAA γ1 subunit-containing receptors was measured by competition for [^3H]RO7239181 (67.3 Ci/mmol; Roche) binding to membranes from HEK293F cells (ThermoFisher R79007) expressing human (transiently transfected) receptors of composition α5β2γ1, α2β2γ1, α1β2γ1.
as §1, §2
Assays were incubated to equilibrium for 1 hour at 4° C. and then, membranes were filtered onto unifilter (96-well white microplate with bonded GF/C filters preincubated 20-50 minutes in 0.3% Polyethylenimine) with a Filtermate 196 harvester (Packard BioScience) and washed 4 times with cold Potassium Phosphate 10 mM pH 7.4, KCl 100 mM binding buffer. After anhydrousing, filter-retained radioactivity was detected by liquid scintillation counting. Ki values were calculated using Excel-Fit (Microsoft) and are the means of two determinations.

h-GABA-A α2β2γ1 = h-GABA-A α2β2γ1 (Homo sapiens (Human), UniProt P47869+Q8N1C3); experiment: Two-electrode voltage clamp electrophysiology in Xenopus oocytes expressing GABAA receptors; assay type: cell-based; settings: α2β2γ1 GABAA receptor subtype expressing oocytes; reference PAMs
Protocol: Xenopus laevis oocytes at maturation stages V-VI were used for the expression of cloned mRNA encoding GABAA receptor subunits. Oocytes ready for RNA micro-injection were bought from Ecocyte, Castrop-Rauxel, Germany and stored in modified Barth's medium (composition in mM: NaCl 88, KCl 1, NaHCO3 2.4, HEPES 10, MgSO4 0.82, CaNO3 0.33, CaCl2 0.33, pH=7.5) at 20° C. until the experiment.
Oocytes were plated in 96-well plates for microinjection using the Roboinject automated instrument (MultiChannelSystems, Reutlingen, Germany). Approximately 50 nL of an aqueous solution containing the RNA transcripts for the subunits of the desired GABAA receptor subtype was injected into each oocyte. […] Oocytes were kept in modified Barth's medium (composition in mM: NaCl 88, KCl 1, NaHCO3 […], HEPES 10, MgSO4 0.82, CaNO3 0.33, CaCl2 0.33, pH=7.5) at 20° C. until the experiment.
Electrophysiological experiments were performed using the Roboocyte instrument (MultiChannelSystems, Reutlingen, Germany) on days 3 to 5 after the micro-injection of mRNA. During the experiment the oocytes were constantly superfused by a solution containing (in mM) NaCl 90, KCl 1, HEPES 5, MgCl2 1, CaCl2 1 (pH 7.4). Oocytes were impaled by two glass microelectrodes (resistance: […]) which were filled with a solution containing KCl 1M+K-acetate 1.5 M and voltage-clamped to −80 mV. The recordings were performed at room temperature using the Roboocyte two-electrode voltage clamp system (Multichannelsystem). After an initial equilibration period of 1.5 min GABA was added for 1.5 min at a concentration evoking approximately 20% of a maximal current response (EC20). After another rest interval of 2.5 min GABA was again added evoking a response of similar amplitude and shape. […] Current traces were recorded at a digitization rate of 10 Hz during and shortly before and after the GABA application.
Each compound and concentration was tested on at least 3 oocytes. Different oocytes were used for different compound concentrations.
For the analysis, the digitized current traces of the first and second GABA response were superimposed and, if necessary, rescaled to equal maximal amplitudes. The ratio between the two responses during the time interval of test compound application was calculated point by point. The extremum of the resulting “ratio trace” was taken as the efficacy (“Fold increase”) of the compound expressed as “% modulation of GABA EC20” (100*(Fold increase−1)).

[4] = Table 1, [3H]Flumazenil displacement, HEK293F cells, mean of two determinations, read-out: Ki h-GABAA α1β3γ2
[5] = Ki h-GABAA α2β2γ1, Table 1, [3H]RO7239181 displacement, membranes from HEK293F cells, mean of two determinations
[6] = Table 1, Ki α1β3γ2 (nM)/Ki α2β2γ1 (nM)

SMILES | pKi [1] | pKi [2, 4] | pKi [3, 5] | γ2/γ1 Selectivity Ratio [3, 6] | LogSel ([3]; Table 1) | potentiation of the GABA-induced current (h-GABA-A α2β2γ1) | also measured
Cc1cn2c(n1)[C@H](C)N=C(c1c(F)cccc1F)c1c-2cnc(C(F)(F)F)c1Cl [Example 18, (7S)-11-chloro-9-(2,6-difluorophenyl)-4,7-dimethyl-12-(trifluoromethyl)-2,5,8,13-tetrazatricyclo[8.4.0.02,6]tetradeca-1(10),3,5,8,11,13-hexaene] | 8.23 | 5.38 | 7.26 | 77 | 1.88 | – | pKi [3]: 6.88
C[C@@H]1N=C(c2c(F)cccc2F)c2c(cnc(C(F)(F)F)c2Cl)-n2nc(C(=O)N[C@H]3C[C@@H](O)C3)nc21 [Example 23, (7S)-11-chloro-9-(2,6-difluorophenyl)-N-cis-(3-hydroxycyclobutyl)-7-methyl-12-(trifluoromethyl)-2,3,5,8,13-pentazatricyclo[8.4.0.02,6]tetradeca-1(10),3,5,8,11,13-hexaene-4-carboxamide] | 8.01 | 4.84 | – | 144 | 2.16 | – | pKi ([3]; Table 1, [3H]RO7239181 displacement, membranes from HEK293F cells, mean of two determinations, read-out: Ki h-GABAA α2β2γ1): 6.99; pKi ([3]; Table 2, [3H]RO7239181 displacement, read-out: Ki h-GABAA α2β2γ1): 6.99
C[C@@H]1N=C(c2c(F)cccc2F)c2c(cnc(C(F)(F)F)c2Cl)-n2nc(C(=O)N[C@H]3C[C@H](O)C3)nc21 [Example 24, (7S)-11-chloro-9-(2,6-difluorophenyl)-N-trans-(3-hydroxycyclobutyl)-7-methyl-12-(trifluoromethyl)-2,3,5,8,13-pentazatricyclo[8.4.0.02,6]tetradeca-1(10),3,5,8,11,13-hexaene-4-carboxamide] | 8.55 | 5.08 | 7.14 | 115 | 2.06 | – | pKi ([3]; Ki h-GABAA α2β2γ1, Table 2, [3H]RO7239181 displacement): 7.14
Cc1ncc2n1-c1ccc(Cl)cc1C(c1ccccc1F)=NC2 [Midazolam, reference compound] | – | – | – | – | – | ~60% | –
CN1C(=O)CN=C(c2ccccc2F)c2ccncc21 [RE-A, reference compound] | – | – | – | – | – | – | pKi [2]: 6.75; pKi ([3]; Ki h-GABAA α2β2γ1, Table 3, reference compounds comparison): 4.99; γ2/γ1 Selectivity Ratio ([3]; Table 3, Ki α1β3γ2/Ki α2β2γ1): 0.018
Cc1nnc2n1-c1ccc(Cl)cc1C(c1ccccc1Cl)=NC2 [Triazolam, reference compound] | – | – | – | – | – | ~60% | –
